Experimental data published in patent US20240417410A1, “TRICYCLIC COMPOUNDS FOR THE TREATMENT OF CANCER” (Hoffmann-La Roche Inc., priority 2023, published 2024).

Tested on: WT NRAS-BRAF complex
Assay: WT NRAS-BRAF with CYPA interaction assay (TR-FRET)
Type: biochemical
Experimental: In this example, TR-FRET was used to measure the compound or compound-CYPA dependent disruption of the KRAS G12V-BRAF complex to assess inhibition efficacy. The IC50 ratio between WT KRAS/HRAS/NRAS and KRAS G12V mutant was calculated as selective index, which indicated tolerability and safety profile. Disruption of WT KRAS/HRAS/NRAS-BRAF complex by compounds was detected respectively. In assay buffer containing 25 mM HEPES (PH-7.4,4-(2-hydroxyethyl)-1-piperazineethanesulfonic acid, Thermo, 15630080), 0.002% Tween20, 0.1% BSA, 100 mM NaCl, 5 mM MgCl2, 10 μM GMPPNP (Guanosine 5′-[β,γ-imido]triphosphate trisodium salt hydrate, Sigma, G0635), tagless CYPA and GMPPNP loaded 6His-RAS proteins, and GST-BRAF^RBD were mixed in a well of a 384-well assay plate at final concentrations of 50 nM, 6.25 nM and 1 nM, respectively. Compound was present in plate wells as a 16-point 3-fold dilution series starting at a final concentration of 10 μM and incubated for 3 hours. A mixture of MAb Anti-6His-XL665 (Cisbio, 61HISXLB) and Mab anti-GST-TB cryptate (Cisbio, 61GSTTLB) was then added at a final concentration of 6.67 nM and 0.21 nM, respectively, and the plate was incubated for an additional 1.5 hours. TR-FRET signal was read on a PHERstar FSX microplate reader (Ex320 nm, Em 665/615 nm). Compounds that facilitate disruption of the RAS-BRAF complex were identified as those eliciting a decrease in the TR-FRET ratio relative to DMSO control wells.

SMILES: CO[C@@H](C)c1ncc(N2CCN(C)CC2)cc1-c1c2c3cc(cc4c3n1CCC4)-c1csc(n1)C[C@H](NC(=O)[C@H]1[C@H](C)[C@@H]1C)C(=O)N1CCC[C@H](N1)C(=O)OCC(C)(C)C2 (atropisomer, axis not shown; (M)) [Example 24, (1r,2R,3S)-N-[(7S,13S)-(20M)-20-[2-[(1S)-1-methoxyethyl]-5-(4-methylpiperazin-1-yl)-3-pyridyl]-17,17-dimethyl-8,14-dioxo-15-oxa-4-thia-9,21,30,31-tetrazahexacyclo[23.3.1.1^2,5.1^9,13.0^19,27.0^21,26]hentriaconta-1 (28),2,5 (31), 19,25 (29),26-hexaen-7-yl]-2,3-dimethyl-cyclopropanecarboxamide]
- Selectivity Index (IC50 ratio) WT NRAS/KRAS G12V: 5.0
